Assay results as given in patent US9249129B2, “Morpholino substituted urea derivatives as mTOR inhibitors” (CELLZOME LIMITED, priority 2010, dated 2016).
One block for each compound: values may come before it.

Tests used:
Test in all cases: kinobeads assay with mass spectrometry detection of kinases (kinase selectivity profile)
Type in all cases: binding
kinases (kinome) [1] = target: T1, kinases (kinome) (Homo sapiens, UniProt Q8N752); conditions: CK1a2 (CK1), IPI00167096
T1 construct: determined in kinobeads assays with mass spectrometry detection of kinases as described previously; endogenous in cells; host or cells: cell lysate
From the text: (§1) The protein kinase complement of the human genome (the kinome) was described previously (Manning et al., 2002. Science 298(5600):1912-1934). Sequence accession numbers are defined by the International Protein Index (IPI) (Kersey et al., 2004. Proteomics 4(7):1985-1988).

kinases (kinome) [2] = target: T2, kinases (kinome) (Homo sapiens, UniProt Q02750); conditions: MAP2K1 (STE), IPI00219604
T2 construct: determined in kinobeads assays with mass spectrometry detection of kinases as described previously; endogenous in cells; host or cells: cell lysate
From the text: as §1

kinases (kinome) [3] = target: T3, kinases (kinome) (Homo sapiens, UniProt P52333); conditions: JAK3 (TK), IPI00219418
T3 construct: determined in kinobeads assays with mass spectrometry detection of kinases as described previously; endogenous in cells; host or cells: cell lysate
T3 sequence (P52333 1-1124): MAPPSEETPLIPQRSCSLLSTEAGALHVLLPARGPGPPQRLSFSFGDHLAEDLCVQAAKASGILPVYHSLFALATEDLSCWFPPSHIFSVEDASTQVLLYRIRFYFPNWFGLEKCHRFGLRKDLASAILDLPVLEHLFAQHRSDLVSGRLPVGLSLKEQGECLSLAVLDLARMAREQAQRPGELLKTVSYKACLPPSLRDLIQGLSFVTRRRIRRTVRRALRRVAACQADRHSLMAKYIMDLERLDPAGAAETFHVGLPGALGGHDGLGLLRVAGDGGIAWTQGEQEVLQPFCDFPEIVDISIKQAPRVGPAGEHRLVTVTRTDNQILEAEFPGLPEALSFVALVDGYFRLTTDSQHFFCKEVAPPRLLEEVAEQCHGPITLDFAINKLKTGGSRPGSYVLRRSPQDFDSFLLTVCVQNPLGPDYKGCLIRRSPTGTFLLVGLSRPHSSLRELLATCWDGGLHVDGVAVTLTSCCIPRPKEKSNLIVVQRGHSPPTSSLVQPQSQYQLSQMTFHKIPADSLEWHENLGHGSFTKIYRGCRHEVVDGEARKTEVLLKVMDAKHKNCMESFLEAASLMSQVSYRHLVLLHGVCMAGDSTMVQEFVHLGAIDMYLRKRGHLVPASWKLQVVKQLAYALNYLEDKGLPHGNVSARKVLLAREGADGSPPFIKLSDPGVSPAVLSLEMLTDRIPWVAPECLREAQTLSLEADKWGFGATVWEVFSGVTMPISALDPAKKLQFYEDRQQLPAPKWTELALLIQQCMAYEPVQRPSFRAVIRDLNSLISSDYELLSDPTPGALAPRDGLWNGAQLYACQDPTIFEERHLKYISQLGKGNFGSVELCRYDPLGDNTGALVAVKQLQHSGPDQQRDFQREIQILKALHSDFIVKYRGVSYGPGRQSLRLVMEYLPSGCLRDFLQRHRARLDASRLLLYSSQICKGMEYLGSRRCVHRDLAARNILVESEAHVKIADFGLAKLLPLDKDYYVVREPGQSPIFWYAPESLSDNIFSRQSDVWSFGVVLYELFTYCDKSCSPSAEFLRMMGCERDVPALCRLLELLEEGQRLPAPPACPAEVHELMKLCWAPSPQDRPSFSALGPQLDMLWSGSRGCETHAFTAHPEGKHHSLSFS
From the text: as §1

kinases (kinome) [4] = target: T4, kinases (kinome) (Homo sapiens, UniProt Q99759); conditions: MAP3K3 (STE), IPI00181703
T4 construct: determined in kinobeads assays with mass spectrometry detection of kinases as described previously; endogenous in cells; host or cells: cell lysate
From the text: as §1

kinases (kinome) [5] = target: T5, kinases (kinome) (Homo sapiens, UniProt P15735); conditions: PHKg2 (CAMK), IPI00012891
T5 construct: determined in kinobeads assays with mass spectrometry detection of kinases as described previously; endogenous in cells; host or cells: cell lysate
From the text: as §1

kinases (kinome) [6] = target: T6, kinases (kinome) (Homo sapiens, UniProt P48426); conditions: PIP5K2A (Lipid Kinase), IPI00009688
T6 construct: determined in kinobeads assays with mass spectrometry detection of kinases as described previously; endogenous in cells; host or cells: cell lysate
From the text: as §1

kinases (kinome) [7] = target: T7, kinases (kinome) (Homo sapiens, UniProt Q9BZL6); conditions: PKD2 (CAMK), IPI00009334
T7 construct: determined in kinobeads assays with mass spectrometry detection of kinases as described previously; endogenous in cells; host or cells: cell lysate
From the text: as §1

kinases (kinome) [8] = target: T8, kinases (kinome) (Homo sapiens, UniProt Q16513); conditions: PKN2 (AGC), IPI00002804
T8 construct: determined in kinobeads assays with mass spectrometry detection of kinases as described previously; endogenous in cells; host or cells: cell lysate
From the text: as §1

kinases (kinome) [9] = target: T9, kinases (kinome) (Homo sapiens, UniProt Q86TW2); conditions: ADCK1 (Atypical), IPI00787836
T9 construct: determined in kinobeads assays with mass spectrometry detection of kinases as described previously; endogenous in cells; host or cells: cell lysate
From the text: as §1

kinases (kinome) [10] = target: T10, kinases (kinome) (Homo sapiens, UniProt O60674); conditions: JAK2 (TK), IPI00031016
T10 construct: determined in kinobeads assays with mass spectrometry detection of kinases as described previously; endogenous in cells; host or cells: cell lysate
From the text: as §1

kinases (kinome) [11] = target: T11, kinases (kinome) (Homo sapiens, UniProt Q13873); conditions: BMPR2 (TKL), IPI00783156
T11 construct: determined in kinobeads assays with mass spectrometry detection of kinases as described previously; endogenous in cells; host or cells: cell lysate
From the text: as §1

kinases (kinome) [12] = target: T12, kinases (kinome) (Homo sapiens, UniProt P51812); conditions: RSK2 (AGC), IPI00020898
T12 construct: determined in kinobeads assays with mass spectrometry detection of kinases as described previously; endogenous in cells; host or cells: cell lysate
From the text: as §1

kinases (kinome) [13] = target: T13, kinases (kinome) (Homo sapiens, UniProt P06213); conditions: INSR (TK), IPI00025803
T13 construct: determined in kinobeads assays with mass spectrometry detection of kinases as described previously; endogenous in cells; host or cells: cell lysate
From the text: as §1

kinases (kinome) [14] = target: T14, kinases (kinome) (Homo sapiens, UniProt Q9UQM7); conditions: CaMK2a (CAMK), IPI00550056
T14 construct: determined in kinobeads assays with mass spectrometry detection of kinases as described previously; endogenous in cells; host or cells: cell lysate
From the text: as §1

kinases (kinome) [15] = target: T15, kinases (kinome) (Homo sapiens, UniProt Q9Y6M4); conditions: CK1g3 (CK1), IPI00218437
T15 construct: determined in kinobeads assays with mass spectrometry detection of kinases as described previously; endogenous in cells; host or cells: cell lysate
From the text: as §1

kinases (kinome) [16] = target: T16, kinases (kinome) (Homo sapiens, UniProt P78368); conditions: CK1g2 (CK1), IPI00297767
T16 construct: determined in kinobeads assays with mass spectrometry detection of kinases as described previously; endogenous in cells; host or cells: cell lysate
From the text: as §1

kinases (kinome) [17] = target: T17, kinases (kinome) (Homo sapiens, UniProt Q13164); conditions: Erk5 (CMGC), IPI00910923
T17 construct: determined in kinobeads assays with mass spectrometry detection of kinases as described previously; endogenous in cells; host or cells: cell lysate
From the text: as §1

kinases (kinome) [18] = target: T18, kinases (kinome) (Homo sapiens, UniProt Q13627); conditions: DYRK1A (CMGC), IPI00014344
T18 construct: determined in kinobeads assays with mass spectrometry detection of kinases as described previously; endogenous in cells; host or cells: cell lysate
From the text: as §1

kinases (kinome) [19] = target: T19, kinases (kinome) (Homo sapiens, UniProt Q9H2G2); conditions: SLK (STE), IPI00022827
T19 construct: determined in kinobeads assays with mass spectrometry detection of kinases as described previously; endogenous in cells; host or cells: cell lysate
From the text: as §1

T2 sequence (Q02750 whole entry): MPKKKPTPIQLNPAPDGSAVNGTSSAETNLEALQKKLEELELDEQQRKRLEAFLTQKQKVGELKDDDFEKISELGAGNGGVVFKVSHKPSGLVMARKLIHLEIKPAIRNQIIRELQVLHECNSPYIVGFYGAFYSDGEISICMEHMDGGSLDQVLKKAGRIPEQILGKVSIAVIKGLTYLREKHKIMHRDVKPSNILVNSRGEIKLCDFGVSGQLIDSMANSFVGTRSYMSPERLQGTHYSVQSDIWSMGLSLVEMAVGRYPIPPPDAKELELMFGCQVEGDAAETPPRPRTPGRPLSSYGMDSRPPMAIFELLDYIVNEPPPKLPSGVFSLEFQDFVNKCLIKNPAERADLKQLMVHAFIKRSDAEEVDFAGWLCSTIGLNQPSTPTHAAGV
T13 sequence (P06213 28-1382): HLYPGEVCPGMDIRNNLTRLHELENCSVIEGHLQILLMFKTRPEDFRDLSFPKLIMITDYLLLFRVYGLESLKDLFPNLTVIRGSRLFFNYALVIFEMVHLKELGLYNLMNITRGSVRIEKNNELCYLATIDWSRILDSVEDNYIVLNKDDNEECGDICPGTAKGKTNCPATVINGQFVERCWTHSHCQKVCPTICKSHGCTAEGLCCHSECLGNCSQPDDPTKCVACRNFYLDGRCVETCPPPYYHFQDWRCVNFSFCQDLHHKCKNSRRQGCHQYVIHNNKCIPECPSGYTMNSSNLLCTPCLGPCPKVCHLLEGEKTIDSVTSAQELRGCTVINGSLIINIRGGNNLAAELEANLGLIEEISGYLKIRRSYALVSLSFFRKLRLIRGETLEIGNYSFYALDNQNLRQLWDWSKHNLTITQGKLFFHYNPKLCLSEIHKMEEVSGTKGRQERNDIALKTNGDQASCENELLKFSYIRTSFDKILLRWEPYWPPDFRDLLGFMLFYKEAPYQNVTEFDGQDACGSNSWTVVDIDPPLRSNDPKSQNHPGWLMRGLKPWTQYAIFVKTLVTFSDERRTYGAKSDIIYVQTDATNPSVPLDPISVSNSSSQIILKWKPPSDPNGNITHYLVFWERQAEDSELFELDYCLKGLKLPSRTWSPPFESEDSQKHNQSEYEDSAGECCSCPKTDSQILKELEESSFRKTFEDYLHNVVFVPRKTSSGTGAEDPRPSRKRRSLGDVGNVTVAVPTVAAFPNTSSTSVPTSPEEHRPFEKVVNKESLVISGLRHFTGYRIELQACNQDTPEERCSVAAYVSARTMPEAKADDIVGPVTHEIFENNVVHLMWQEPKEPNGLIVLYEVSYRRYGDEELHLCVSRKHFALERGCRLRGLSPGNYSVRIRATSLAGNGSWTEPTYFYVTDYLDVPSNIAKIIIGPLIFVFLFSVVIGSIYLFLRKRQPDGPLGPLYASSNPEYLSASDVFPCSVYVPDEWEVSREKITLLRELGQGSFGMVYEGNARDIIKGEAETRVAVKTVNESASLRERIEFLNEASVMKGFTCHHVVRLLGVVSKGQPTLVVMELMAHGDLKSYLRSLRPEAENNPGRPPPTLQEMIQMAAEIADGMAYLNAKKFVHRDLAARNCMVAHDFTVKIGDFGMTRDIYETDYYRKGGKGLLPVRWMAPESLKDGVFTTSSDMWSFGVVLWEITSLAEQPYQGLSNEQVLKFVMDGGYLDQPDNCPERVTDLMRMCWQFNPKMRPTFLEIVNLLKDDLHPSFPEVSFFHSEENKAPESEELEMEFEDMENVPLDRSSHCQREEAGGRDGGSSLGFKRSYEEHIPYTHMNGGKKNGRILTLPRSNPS
T7 sequence (Q9BZL6 whole entry): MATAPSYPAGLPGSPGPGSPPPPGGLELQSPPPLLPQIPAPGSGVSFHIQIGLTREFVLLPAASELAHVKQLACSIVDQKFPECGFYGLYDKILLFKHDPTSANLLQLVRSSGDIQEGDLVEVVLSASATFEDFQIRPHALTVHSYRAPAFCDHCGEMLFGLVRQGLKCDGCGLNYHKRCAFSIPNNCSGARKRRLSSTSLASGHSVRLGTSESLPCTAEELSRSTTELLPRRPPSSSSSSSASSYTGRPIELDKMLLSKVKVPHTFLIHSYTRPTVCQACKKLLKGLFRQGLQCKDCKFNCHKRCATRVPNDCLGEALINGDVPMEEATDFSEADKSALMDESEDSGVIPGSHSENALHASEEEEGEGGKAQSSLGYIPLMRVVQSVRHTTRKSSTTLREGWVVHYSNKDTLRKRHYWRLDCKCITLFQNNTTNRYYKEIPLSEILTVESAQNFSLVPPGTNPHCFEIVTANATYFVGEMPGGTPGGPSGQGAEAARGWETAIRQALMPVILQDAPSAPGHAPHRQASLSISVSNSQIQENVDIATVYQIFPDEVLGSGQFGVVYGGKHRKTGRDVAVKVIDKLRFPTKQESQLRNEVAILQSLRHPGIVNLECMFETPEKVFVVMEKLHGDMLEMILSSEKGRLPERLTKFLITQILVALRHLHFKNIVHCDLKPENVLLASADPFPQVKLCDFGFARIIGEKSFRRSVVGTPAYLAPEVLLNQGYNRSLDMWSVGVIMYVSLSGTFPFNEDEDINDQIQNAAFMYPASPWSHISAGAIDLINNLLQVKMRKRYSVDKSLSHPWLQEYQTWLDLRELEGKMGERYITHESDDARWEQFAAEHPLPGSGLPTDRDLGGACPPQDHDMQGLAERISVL
T4 sequence (Q99759 whole entry): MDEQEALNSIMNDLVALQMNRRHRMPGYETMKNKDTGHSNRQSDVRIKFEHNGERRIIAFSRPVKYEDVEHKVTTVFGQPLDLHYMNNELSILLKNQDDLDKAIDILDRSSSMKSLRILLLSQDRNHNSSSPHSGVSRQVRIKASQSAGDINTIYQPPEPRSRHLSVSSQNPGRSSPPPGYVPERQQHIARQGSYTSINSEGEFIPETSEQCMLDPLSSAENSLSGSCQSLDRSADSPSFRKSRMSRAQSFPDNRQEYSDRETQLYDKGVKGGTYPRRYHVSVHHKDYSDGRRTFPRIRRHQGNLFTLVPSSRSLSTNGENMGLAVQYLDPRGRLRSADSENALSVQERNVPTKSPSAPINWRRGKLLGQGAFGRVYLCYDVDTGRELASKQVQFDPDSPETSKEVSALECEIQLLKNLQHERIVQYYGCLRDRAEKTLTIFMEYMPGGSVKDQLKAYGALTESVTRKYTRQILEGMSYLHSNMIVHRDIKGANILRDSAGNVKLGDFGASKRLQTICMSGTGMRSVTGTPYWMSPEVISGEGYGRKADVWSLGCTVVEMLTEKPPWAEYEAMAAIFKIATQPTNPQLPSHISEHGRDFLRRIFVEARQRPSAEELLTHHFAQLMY
T8 sequence (Q16513 whole entry): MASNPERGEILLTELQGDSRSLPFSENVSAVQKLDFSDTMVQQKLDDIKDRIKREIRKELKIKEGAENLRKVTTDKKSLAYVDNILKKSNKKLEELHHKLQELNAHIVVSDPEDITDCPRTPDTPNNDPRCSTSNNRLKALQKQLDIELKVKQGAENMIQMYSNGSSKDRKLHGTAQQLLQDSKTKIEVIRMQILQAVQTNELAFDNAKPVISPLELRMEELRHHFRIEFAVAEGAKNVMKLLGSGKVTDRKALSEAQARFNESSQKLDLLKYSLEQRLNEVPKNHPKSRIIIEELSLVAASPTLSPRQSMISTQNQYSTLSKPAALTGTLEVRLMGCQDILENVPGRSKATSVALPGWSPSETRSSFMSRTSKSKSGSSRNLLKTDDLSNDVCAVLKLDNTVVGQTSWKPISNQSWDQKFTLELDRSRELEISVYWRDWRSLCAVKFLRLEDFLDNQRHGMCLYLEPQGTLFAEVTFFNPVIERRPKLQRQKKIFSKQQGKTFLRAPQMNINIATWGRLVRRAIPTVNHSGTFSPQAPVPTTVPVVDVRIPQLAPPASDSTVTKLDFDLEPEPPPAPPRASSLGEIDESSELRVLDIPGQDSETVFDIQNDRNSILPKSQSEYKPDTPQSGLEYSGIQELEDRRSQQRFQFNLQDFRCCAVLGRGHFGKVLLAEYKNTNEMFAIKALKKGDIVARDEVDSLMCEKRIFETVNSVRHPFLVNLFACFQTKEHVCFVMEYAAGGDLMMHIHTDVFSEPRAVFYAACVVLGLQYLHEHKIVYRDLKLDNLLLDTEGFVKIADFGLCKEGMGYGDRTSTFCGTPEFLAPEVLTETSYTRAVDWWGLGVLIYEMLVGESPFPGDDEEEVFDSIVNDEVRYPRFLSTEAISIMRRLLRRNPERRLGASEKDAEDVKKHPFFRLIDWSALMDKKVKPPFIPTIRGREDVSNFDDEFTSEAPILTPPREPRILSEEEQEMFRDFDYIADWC
T12 sequence (P51812 whole entry): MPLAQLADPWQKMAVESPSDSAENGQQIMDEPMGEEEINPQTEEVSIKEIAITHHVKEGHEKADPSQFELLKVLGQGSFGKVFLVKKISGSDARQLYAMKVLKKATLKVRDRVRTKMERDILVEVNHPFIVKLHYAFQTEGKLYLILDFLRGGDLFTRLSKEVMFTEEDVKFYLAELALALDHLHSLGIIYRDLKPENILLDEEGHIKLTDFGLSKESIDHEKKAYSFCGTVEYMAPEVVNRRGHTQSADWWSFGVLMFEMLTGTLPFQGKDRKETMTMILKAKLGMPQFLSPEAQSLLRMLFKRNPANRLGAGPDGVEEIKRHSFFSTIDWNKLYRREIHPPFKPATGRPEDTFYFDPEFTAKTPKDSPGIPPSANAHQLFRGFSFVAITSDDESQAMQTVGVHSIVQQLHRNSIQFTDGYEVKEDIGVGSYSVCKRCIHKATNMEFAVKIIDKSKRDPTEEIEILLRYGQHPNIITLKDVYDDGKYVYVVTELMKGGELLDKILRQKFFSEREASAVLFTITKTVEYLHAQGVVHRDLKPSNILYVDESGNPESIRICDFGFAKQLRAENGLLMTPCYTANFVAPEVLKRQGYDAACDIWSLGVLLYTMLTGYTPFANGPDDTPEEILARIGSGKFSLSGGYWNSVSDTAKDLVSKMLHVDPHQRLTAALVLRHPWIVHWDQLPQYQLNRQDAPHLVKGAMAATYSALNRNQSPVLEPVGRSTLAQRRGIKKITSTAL

SMILES: CCNC(=O)Nc1ccc(-c2cc(-c3ccccc3C#N)nc(N3CCOC[C@@H]3C)n2)cc1 [Example 8, (S)-1-(4-(6-(2-cyanophenyl)-2-(3-methylmorpholino)pyrimidin-4-yl)phenyl)-3-ethylurea]
IC50 (kinases (kinome) [14]): > 10 µM | IC50 (kinases (kinome) [15]): > 10 µM

SMILES: C[C@H]1COCCN1c1nc(-c2ccc(NC(=O)NC3CC3)cc2)cc(-c2cccnc2S(C)(=O)=O)n1 [Example 46, (S)-1-cyclopropyl-3-(4-(2-(3-methylmorpholino)-6-(2-(methylsulfonyl)pyridin-3-yl)pyrimidin-4-yl)phenyl)urea]
IC50 (kinases (kinome) [2]): > 10 µM | IC50 (kinases (kinome) [3]): > 10 µM | IC50 (kinases (kinome) [16]): > 10 µM | IC50 (kinases (kinome) [10]): > 10 µM

SMILES: C[C@H]1COCCN1c1nc(-c2ccc(NC(=O)N[C@H]3CCC[C@@H]3O)cc2)cc(-c2cc(F)ccc2S(C)(=O)=O)n1 [Example 76, 1-(4-(6-(5-fluoro-2-(methylsulfonyl)phenyl)-2-((S)-3-methylmorpholino)pyrimidin-4-yl)phenyl)-3-((1S,2S)-2-hydroxycyclopentyl)urea]
IC50 (kinases (kinome) [2]): > 10 µM | IC50 (kinases (kinome) [3]): > 10 µM | IC50 (kinases (kinome) [4]): > 10 µM

SMILES: C[C@H]1COCCN1c1cc(-c2ccccn2)nc(-c2ccc(NC(=O)NCCO)cc2)n1 [Example 43, (S)-1-(2-hydroxyethyl)-3-(4-(4-(3-methylmorpholino)-6-(pyridin-2-yl)pyrimidin-2-yl)phenyl)urea]
IC50 (kinases (kinome) [2]): > 10 µM | IC50 (kinases (kinome) [3]): > 10 µM | IC50 (kinases (kinome) [8]): > 10 µM

Other lines, results leading:

IC50 (kinases (kinome) [1]): > 10 µM | IC50 (kinases (kinome) [2]): > 10 µM | IC50 (kinases (kinome) [3]): > 10 µM | IC50 (kinases (kinome) [4]): > 10 µM | IC50 (kinases (kinome) [5]): > 10 µM | IC50 (kinases (kinome) [6]): > 10 µM | IC50 (kinases (kinome) [7]): > 10 µM | IC50 (kinases (kinome) [8]): > 10 µM | IC50 (kinases (kinome) [9]): > 10 µM | IC50 (kinases (kinome) [10]): > 10 µM | IC50 (kinases (kinome) [11]): > 10 µM | IC50 (kinases (kinome) [12]): > 10 µM | IC50 (kinases (kinome) [13]): > 10 µM
SMILES: C[C@H]1COCCN1c1nc(-c2ccc(NC(=O)NC3CC3)cc2)cc(-c2cc(F)ccc2S(C)(=O)=O)n1 [Example 40, (S)-1-cyclopropyl-3-(4-(6-(5-fluoro-2-(methylsulfonyl)phenyl)-2-(3-methylmorpholino)pyrimidin-4-yl)phenyl)urea]

IC50 (kinases (kinome) [3]): > 10 µM
SMILES: C[C@H]1COCCN1c1cc(-c2ccccc2S(C)(=O)=O)nc(-c2ccc(NC(=O)NC3CC3)cc2)n1 [Example 6, (S)-1-cyclopropyl-3-(4-(4-(3-methylmorpholino)-6-(2-(methylsulfonyl)phenyl)pyrimidin-2-yl)phenyl)urea]

IC50 (kinases (kinome) [2]): > 10 µM | IC50 (kinases (kinome) [5]): > 10 µM | IC50 (kinases (kinome) [17]): > 10 µM | IC50 (kinases (kinome) [7]): > 10 µM | IC50 (kinases (kinome) [18]): > 10 µM | IC50 (kinases (kinome) [15]): > 10 µM | IC50 (kinases (kinome) [19]): > 10 µM | IC50 (kinases (kinome) [12]): > 10 µM | IC50 (kinases (kinome) [13]): > 10 µM
SMILES: C[C@H]1COCCN1c1nc(-c2ccc(NC(=O)NC3CC3)cc2)cc(-c2ccccc2S(C)(=O)=O)n1 [Example 4, (S)-1-cyclopropyl-3-(4-(2-(3-methylmorpholino)-6-(2-(methylsulfonyl)phenyl)pyrimidin-4-yl)phenyl)urea]
